Assay results: US12612410B2 (CHILDREN'S HOSPITAL MEDICAL CENTER, priority 2020, dated 2026)

Tests used:
Type in all cases: cell-based
NF-κB [1] = assay: NF-kB SEAP reporter assay in THP-1-Blue NF-κB cells, Pam3CSK4 stimulation; settings: Pam3CSK4 1 ng/mL, read-out: NF-κB Pam3SCK4 IC50
Method: (§1) THP-1-Blue NF-xB cells (InvivoGen) carrying a stable integrated NF-κB-inducible secreted embryonic alkaline phosphatase (SEAP) reporter construct were plated at a concentration of 1×10^5 cells per well. The cells were stimulated with Pam3CSK4 (1 ng/mL) or hIL1B (1 ng/mL). After 10-20 minutes, the cells were then treated with vehicle (DMSO) or serial dilutions of the test compounds (10 doses tested for each test compound, with a 1:10 dilution series starting at 1 μM or 3 μM) with a final volume of 200 μL for 24 hours at 37° C. After 24 hours, the cells were centrifuged and 20 μL supernatant was incubated with 180 μL QUANTI-Blue reagent at 37° C. for 30-60 minutes. The levels of NF-κB-induced was measured in a microplate reader at 620 nm.

NF-κB [2] = assay: NF-kB SEAP reporter assay in THP-1-Blue NF-κB cells, hIL1B stimulation; settings: hIL1B 1 ng/mL, read-out: NF-κB IL1B IC50
Method: as §1

FLT3 = target: T1, FLT3 (Homo sapiens, UniProt P36888); assay: Reaction Biology NanoBRET target engagement assay, FLT3; settings: transfected HEK-293 cells
T1 sequence (P36888 27-993): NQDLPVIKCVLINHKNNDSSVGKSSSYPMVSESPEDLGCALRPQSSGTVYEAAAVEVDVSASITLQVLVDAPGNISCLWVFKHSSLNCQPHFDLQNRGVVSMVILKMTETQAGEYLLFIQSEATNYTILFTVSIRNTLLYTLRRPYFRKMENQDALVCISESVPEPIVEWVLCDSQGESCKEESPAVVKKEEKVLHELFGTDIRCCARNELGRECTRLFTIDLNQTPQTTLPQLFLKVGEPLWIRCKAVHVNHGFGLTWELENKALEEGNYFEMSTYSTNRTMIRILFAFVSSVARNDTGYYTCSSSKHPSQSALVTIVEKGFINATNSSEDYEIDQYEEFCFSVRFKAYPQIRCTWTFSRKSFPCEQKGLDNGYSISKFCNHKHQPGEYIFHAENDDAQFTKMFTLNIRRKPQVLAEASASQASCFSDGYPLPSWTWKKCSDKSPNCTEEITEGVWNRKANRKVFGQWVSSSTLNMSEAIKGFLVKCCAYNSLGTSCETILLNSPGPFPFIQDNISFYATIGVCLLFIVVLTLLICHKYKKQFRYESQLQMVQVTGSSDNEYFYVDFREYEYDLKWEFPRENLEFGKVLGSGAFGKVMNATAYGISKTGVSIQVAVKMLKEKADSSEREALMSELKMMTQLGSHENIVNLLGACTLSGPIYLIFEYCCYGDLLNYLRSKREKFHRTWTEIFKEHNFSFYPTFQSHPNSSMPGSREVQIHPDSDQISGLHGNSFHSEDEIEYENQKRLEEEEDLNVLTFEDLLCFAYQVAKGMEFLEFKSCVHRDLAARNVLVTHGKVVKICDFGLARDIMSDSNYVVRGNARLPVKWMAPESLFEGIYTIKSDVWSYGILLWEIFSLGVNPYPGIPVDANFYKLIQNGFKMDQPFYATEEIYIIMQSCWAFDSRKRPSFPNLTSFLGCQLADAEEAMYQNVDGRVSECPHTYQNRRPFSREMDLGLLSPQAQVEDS
Description: The NanoBRET assay measures kinase engagement in real time in the context of the intact cell. Unlike the previously described biochemical kinase assay methodologies in Examples 26-27, the NanoBRET assay measures the binding and activity characteristics under equilibrium conditions using full-length kinases in the presence of cellular concentrations of ATP in live, uncompromised cells. As such, the assay provides a more relevant assessment of kinase potency and selectivity that would be expected to be observed in the native cellular environment, where potency is often considerably lower than that observed in the isolated biochemical assays (Vasta, J. D. et al., (2018) Cell Chem. Biol. 25, 206-214). The assay uses a Kinase-NanoLuc® fusion vector expressing a kinase protein to which a luciferase tag has been added, a cell-permeant fluorescent NanoBRET™ tracer, a NanoLuc® substrate, and an extracellular NanoLuc® inhibitor. Upon expression of the luciferase-tagged kinase, cells will produce a strong BRET signal only in the presence of the NanoBRET™ tracer. The extracellular NanoLuc® inhibitor ensures that the BRET signal observed emanates only from live cells. Because the BRET signal has tight distance constraints, addition of the test compound will decrease the BRET signal if the compound competes with the NanoBRET™ tracer for binding to the kinase domain. Under the appropriate tracer conditions established by the manufacturer, quantitative intracellular affinity and relative potency can then be determined using Mass Action model equations.
HEK-293 cells were purchased from ATCC. FuGENEHD Transfection Reagent, Kinase-NanoLucfusion plasmids, Transfection Carrier DNA, NanoBRETTracers and dilution buffer, NanoBRETNano-Glo Substrate, Extracellular NanoLucInhibitor were obtained from Promega.
Assays were conducted following Promega assay protocol with some modifications. HEK-293 Cells were transiently transfected with Kinase-NanoLucFusion Vector DNA by FuGENEHD Transfection Reagent. Testing compounds were delivered into 384 well assay plate by Echo 550 (Labcytelnc, Sunnyvale, CA). Transfected cells were harvested and mixed with NanoBRETTracer Reagent and dispensed into 384 well plates and incubated at 37° C. in 5% CO2 cell culture incubator for 1 hour. The NanoBRETNano-Glo Substrate plus Extracellular NanoLucInhibitor Solution were added into the wells of the assay plate and incubated for 2-3 minutes at room temperature. The donor emission wavelength (460 nm) and acceptor emission wavelength (600 nm) were measured in the EnVisionplate reader. The BRET Ratios were calculated. BRET Ratio=[(Acceptor sample÷Donor sample)−(Acceptor no-tracer control÷Donor no-tracer control)]. The IC50 values of compounds were calculated with Prism GraphPad program.
NanoBRET™ Target Engagement Assay Protocol
1. Transient Transfection of HEK-293 Cells NanoLuc® Fusion Vector DNA
• 1). Cultivate HEK-293 cells (70-80% confluence) appropriately prior to assay. Trypsinize and collect HEK-293 cells. • 2). Prepare lipid: DNA complexes as follows: • a. Prepare a […] solution of DNA in Opti-MEM without serum that consists of the following ratios of carrier DNA and DNA encoding NanoLuc® fusion. 9.0 µg/mL of Transfection Carrier DNA, […] of NanoLuc fusion vector DNA and 1 mL of Opti-MEM without phenol red. Mix thoroughly. • b. Add 30 l of FuGENE HD Transfection Reagent into each milliliter of DNA mixture to form lipid: DNA complex. • c. Mix by inversion 10 times. • d. Incubate at ambient temperature for 20 minutes to allow complexes to form. • 3). In a sterile, conical tube, mix 1 part of lipid: DNA complex with 20 parts of HEK-293 cells in suspension. Mix gently by inversion 5 times. • 4). Dispense cells+lipid: DNA complex into a sterile tissue culture dish and incubate for 22-24 hours. 2. Addition of Test Compounds (dry plate shooting)
Each test compound is delivered from the compound source plate to the wells of 384-well white NBS plate by Echo 550.
3. […]

Compound	IC50 (NF-κB [1]; 24 h) [nM]	IC50 (NF-κB [2]; 24 h) [nM]	IC50 (FLT3) [nM]	IC50 (NF-κB [1]; 24 hours) [nM]	IC50 (NF-κB [2]; 24 hours) [nM]
F[C@H]1CNC[C@@H]1Nc1cccc(-c2cnc3cnc(C4CC4)cn23)n1 [Compound 50, 6-(6-cyclopropylimidazo[1,2-a]pyrazin-3-yl)-N-((3S,4S)-4-fluoropyrrolidin-3-yl)pyridin-2-amine]	9	11	10	–	–
FC(F)c1cn2c(-c3cccc(N[C@H]4CNCC[C@@H]4F)n3)cnc2cn1 [Compound 25, 6-(6-(difluoromethyl)imidazo[1,2-a]pyrazin-3-yl)-N-((3S,4S)-4-fluoropiperidin-3-yl)pyridin-2-amine]	12	47	6	–	–
CC(O)(c1cn2c(-c3cccc(N[C@H]4CNCC[C@@H]4F)n3)cnc2cn1)C(F)(F)F (single isomer, unassigned) [Compound 80]	–	–	94	44	124
CC(O)(c1cn2c(-c3cccc(N[C@H]4CNCC[C@@H]4F)n3)cnc2cn1)C(F)(F)F (single isomer, unassigned) [Compound 82]	–	–	40	12	30
CC(C)(C)c1cn2c(-c3cccc(N[C@@H]4CCCNC4)n3)cnc2cn1 [Compound 129, (R)-6-(6-(tert-butyl)imidazo[1,2-a]pyrazin-3-yl)-N-(piperidin-3-yl)pyridin-2-amine]	–	–	12	11	70
O=C1CCCN1c1cn2c(-c3cccc(N[C@H]4CNC[C@@H]4F)n3)cnc2cn1 [Compound 121, 1-(3-(6-(((3S,4S)-4-fluoropyrrolidin-3-yl)amino)pyridin-2-yl)imidazo[1,2-a]pyrazin-6-yl)pyrrolidin-2-one]	54	76	21	–	–
CC(O)(c1cn2c(-c3cccc(N[C@@H]4CCCNC4)n3)cnc2cn1)C(F)(F)F (single isomer, unassigned) [Compound 81]	24	72	15	–	–
CC(C)(O)c1cn2c(-c3cccc(N[C@H]4CNCC[C@@H]4F)n3)cnc2cn1 [Compound 31, 2-(3-(6-(((3S,4S)-4-fluoropiperidin-3-yl)amino)pyridin-2-yl)imidazo[1,2-a]pyrazin-6-yl)propan-2-ol]	37	44	136	–	–
F[C@H]1CCNC[C@@H]1Nc1cccc(-c2cnc3cnc(C4CC4)cn23)n1 [Compound 51, 6-(6-cyclopropylimidazo[1,2-a]pyrazin-3-yl)-N-((3S,4S)-4-fluoropiperidin-3-yl)pyridin-2-amine]	20	57	4	–	–
CC1(c2cn3c(-c4cccc(N[C@H]5CNC[C@@H]5F)n4)cnc3cn2)CC1 [Compound 1, N-((3S,4S)-4-fluoropyrrolidin-3-yl)-6-(6-(1-methylcyclopropyl)imidazo[1,2-a]pyrazin-3-yl)pyridin-2-amine]	6	9	6	–	–
O=C1CCCN1c1cn2c(-c3cccc(N[C@H]4CNCC[C@@H]4F)n3)cnc2cn1 [Compound 119, 1-(3-(6-(((3S,4S)-4-fluoropiperidin-3-yl)amino)pyridin-2-yl)imidazo[1,2-a]pyrazin-6-yl)pyrrolidin-2-one]	–	–	16	56	1290
O=S1(=O)CCCN1c1cn2c(-c3cccc(N[C@H]4CNCC[C@@H]4F)n3)cnc2cn1 [Compound 97, 2-(3-(6-(((3S,4S)-4-fluoropiperidin-3-yl)amino)pyridin-2-yl)imidazo[1,2-a]pyrazin-6-yl)isothiazolidine 1,1-dioxide]	–	–	0.9	83	164
